# Earlier results as cited in patent US6054469A, “Substituted tetrahydropyridine derivatives acting on 5-HT receptors” (Merck Sharp & Dohme Ltd., priority 1995, dated 2000).
# Details: therapeutic doses
smiles,measurement,value
CNS(=O)(=O)Cc1ccc2[nH]cc(CCN(C)C)c2c1 [sumatriptan],adverse events on administration to humans,adverse cardiovascular events
